# Read-outs that look alike come from different tables or passages of the source.
# What was measured:
# HCC78 lung cancer cells = assay: HCC78 lung carcinoma cell growth, SRB assay; assay type: cell-based; conditions: Homo sapiens, HCC78, 144 h, read-out: IC50, proliferation of HCC78 cells
# Experimental: (§1) Adherent cells were plated at 10,000 cells per well in 96-well plates in respective medium. […] For cell cycle analysis, cells were plated in 6 well plates and treated for the indicated time points. Cells were fixed, stained with propidium iodide, and distribution in different phases of cell cycle was evaluated using flow cytometry.
# (§2) Protein was extracted and immunoblotted with phospho-ROS1 and total ROS1 antibodies. C. […] Ba/F3 cells stably transfected with vector or FIG-ROS1 were plated in equal numbers and growth of the cells after 3 days was measured by SRB assay (F).
# [1] = test system: NIH3T3:FIG-ROS1 (S) xenograft
# Experimental: Xenograft experiments were performed in nude mice as previously described. Briefly, a mixture of cells suspended in 0.0375 mL RPMI+10% FBS and 0.0625 mL Matrigel was injected s.c. into the hind left flank of each mouse.
# Tumor volumes (A) and body weight (C) were measured biweekly. After sacrifice, tumor weights (B) were recorded and the amount of drug in serum and tumors were quantified using LC-MS/MS (D). *-significant at p<0.01; **-significant at p<0.001.
# FIG-ROS1 = assay: Phosphorylation of ROS1 fused to FIG in NIH3T3 cells, Western blotting; assay type: cell-based; conditions: 3 days
# Experimental: as §2
# [2] = test system: NIH3T3:FIG-ROS1 (S) cells; assay: NIH3T3:FIG-ROS1 (S) cell proliferation, SRB assay; assay type: cell-based
# Experimental: as §1, §2
# HCC78 cells = assay: Cell cycle analysis of HCC78 cells, flow cytometry; assay type: cell-based; conditions: 1 µM
# Experimental: as §1, §2
# MMP-3 = assay: PMA- or NGF-induced MMP-3 expression in PC12 cells, realtime PCR; assay type: cell-based
# Experimental: RNA was isolated using the Cells-to-Ct kit and realtime PCR was performed using TaqMan primers and probes on the ABI 7900 (Life Technologies). cDNA array experiments were conducted using TaqMan primers and probes on the ABI 7900 PCR machine.
# Figure 3 GTx-186 inhibits inflammation in vitro. Cells were serum starved for 2 days, pre-treated with indicated concentrations of GTx-186 for 30 min and treated with growth factors or cytokines for 12–16 hrs. RNA was extracted, cDNA synthesized, and expression of inflammatory genes were measured by realtime PCR using Taqman primer and probes. All experiments were performed in triplicate and repeated at least three times.
# [3] = test system: croton oil-induced dermatitis; assay: Croton oil-induced atopic dermatitis; conditions: s.c., twice, 16 hrs and 2 hrs before croton oil
# [4] = test system: carrageenan-induced air-pouch inflammation; assay: Carrageenan-induced air pouch inflammation model; assay type: in vivo, Sprague Dawley rats; conditions: GTx-186 40 mg/kg; indomethacin 30 mg/kg s.c.
# Experimental: Cytokine arrays were obtained from Ray Biotech (Norcross, GA) and arrays were processed according to manufacturer’s instructions. Briefly, arrays were incubated overnight with equal volume of air pouch exudates, washed, and incubated with secondary antibodies before developing using enhanced chemiluminescence.
# Air was injected in the flanks of Sprague Dawley rats four days (20 mL) and two days (10 mL) before injection of carrageenan (1 mL of 2% carrageenan) in the pouch. Six hours after carrageenan administration, animals were sacrificed, 5 mL saline was injected into the pouch, pouch exudates were collected and the number of leukocytes and macrophages infiltrated into the pouch were counted under a microscope.
# Figure 5 GTx-186 inhibits carrageenan-induced air-pouch inflammation in rats. A–C. A pouch was created subcutaneously in one flank of rats (n = 3) by injecting 20 ml air four days before and 10 ml air two days before treatment. […] Six hours after carrageenan administration, the animals were sacrificed, 5 ml saline was injected into pouch to flush the pouch fluid and the number of leukocytes and macrophages infiltrated into the pouch were counted under a microscope. TNF-α was measured using an ELISA in the pouch exudates from the experiment in panel B. (C). D. Effect of GTx-186 on inflammatory cytokines in carrageenan-induced air-pouch inflammation was measured in the pouch exudates using a cytokine array. Key cytokines were quantified and expressed as bar graphs on the right. […] 186-GTx-186; Indom-Indomethacin; Dex-Dexamethasone; TNF-Tumor Necrosis Factor; IL-Interleukin; CINC-Cytokine-Induced Neutrophil-Chemoattractant protein.
# [5] = daily, GTx-186 20 mg/kg/day i.v., crizotinib 75 mg/kg p.o.
structure (smiles),measurement,setting,value
C[C@@H](Oc1cc(-c2cnn(C3CCNCC3)c2)cnc1N)c1c(Cl)ccc(F)c1Cl [crizotinib],IC50,HCC78 lung cancer cells,495 nM
same,tumor growth inhibition,[1]; crizotinib 75 mg/kg p.o. daily,90%
same,tumor growth (tumor volume),[1]; [5],significantly reduced
same,tumor weight,[1]; [5],significantly reduced
same,"body weight, visible toxicity","[1]; mouse, in vivo",without affecting body weight
same,phosphorylation of ROS1 fused to FIG,FIG-ROS1,extremely effective in inhibiting
same,IC50,"[2]; 72 h, read-out: IC50, proliferation of NIH3T3:FIG-ROS1 (S), 3 days",24 nM
same,IC50,"[2]; read-out: IC50, proliferation of NIH3T3:FIG-ROS1 (S), 3 days",26 nM
same,time of treatment at which cells were arrested in G0/G1 phase,HCC78 cells,6 days
C[C@@H]1C[C@H]2[C@@H]3CCC4=CC(=O)C=C[C@]4(C)[C@@]3(F)[C@@H](O)C[C@]2(C)[C@@]1(O)C(=O)CO [dexamethasone],MMP-3 expression induced by PMA,MMP-3,inhibited
same,"expression of inflammatory pathway genes, including NGF, in ear punches",[3],markedly inhibited
COc1ccc2c(c1)c(CC(=O)O)c(C)n2C(=O)c1ccc(Cl)cc1 [indomethacin],"TNF-α levels in pouch exudates after carrageenan (ELISA, cytokine array)",[4],effectively inhibited
same,"carrageenan-induced CINC-1, CINC-2, IL-6, and LIX in pouch exudates (cytokine array)",[4],only GTx-186 inhibited
same,"carrageenan-induced CINC-3, TIMP-1, PDGFa, MMP-8, and MCP-1 in pouch exudates (cytokine array)",[4],neither GTx-186 nor indomethacin inhibited
same,"carrageenan-induced TNF-α, IL-1β, fractalkine, IL-13, and leptin in pouch exudates (cytokine array)",[4],inhibited

# Reference: PMC3873281, “Discovery and Preclinical Characterization of Novel Small Molecule TRK and ROS1 Tyrosine Kinase Inhibitors for the Treatment of Cancer and Inflammation” (PLoS ONE, 2013)
